How the values were obtained:
NET [1] = biological target: T1, NET (Mus musculus, UniProt O55192); assay: NE transport assay in cortical synaptosomes; format: biochemical; conditions: for NE transport in KRH/Ca^2+ after drug treatment: 0.1-1 μM BIM, 5 μM KN93 or 10 μM W7, 15 min at 37° C.; for Effect on reduction in NET activity on switch from KRH/Ca^2+ to KRH/EGTA / Effect on elevation in NET activity triggered by addition of Ca^2+: pre-incubation with drug; for Effect on elevation in NET activity triggered by addition of Ca^2+: KRH/EGTA to KRH/Ca^2+
T1 construct: The pellets were collected as synaptosomes; from tissue; host or cells: mouse (C57/B16) brain cortex synaptosomes
T1 sequence (O55192 whole entry): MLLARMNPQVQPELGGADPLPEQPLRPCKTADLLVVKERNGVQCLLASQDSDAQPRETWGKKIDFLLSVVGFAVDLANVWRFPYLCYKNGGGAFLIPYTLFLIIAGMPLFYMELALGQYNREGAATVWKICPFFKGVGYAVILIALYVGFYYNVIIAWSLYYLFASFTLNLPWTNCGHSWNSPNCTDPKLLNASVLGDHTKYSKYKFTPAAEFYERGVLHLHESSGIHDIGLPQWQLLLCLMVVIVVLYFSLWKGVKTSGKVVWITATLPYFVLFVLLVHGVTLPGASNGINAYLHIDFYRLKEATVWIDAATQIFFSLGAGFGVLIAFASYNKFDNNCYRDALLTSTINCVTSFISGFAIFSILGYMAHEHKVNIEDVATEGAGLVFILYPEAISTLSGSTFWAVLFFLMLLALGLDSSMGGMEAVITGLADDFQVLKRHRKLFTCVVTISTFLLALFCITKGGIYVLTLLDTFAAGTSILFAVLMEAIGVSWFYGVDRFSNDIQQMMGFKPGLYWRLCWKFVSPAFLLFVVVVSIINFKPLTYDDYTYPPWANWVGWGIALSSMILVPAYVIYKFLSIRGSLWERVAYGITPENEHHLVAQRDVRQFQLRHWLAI
Procedure: Cell culture, transfection of cDNA or siRNA, generation of stable cell lines, preparation of cortical synaptosomes. CHO cells were maintained in DMEM/10% fetal bovine serum (FBS), 2 mM L-glutamine (L-Glu), 100 IU/ml penicillin, 100 μg/ml streptomycin (pen/strep). […]. The stable clones were selected using hygromycin B ([…], Invitrogen) and maintained in Ham's F12/10% FBS/L-Glu/pen/strep supplemented with Zeocin […] (Invitrogen). CAD-NET cells were generated by stably transfecting HA-NET in pcDNA3 into CAD cells and maintained in DMEM/F12/8% FBS/L-Glu/pen/strep/200 μg/ml of G418 (Mediatech). TransIT-LT1 transfection reagent (Mirus) was used for all transfections. All cells were plated on poly-D-lysine coated plates and incubated for 48 hrs for cDNA transfection and for 48 to 72 hrs for siRNA transfection prior to assays. For synaptosomal preparations, brain cortex was dissected from mice (C57/B16, Harlan) and homogenized in 10 mM HEPES, 0.32 M Sucrose, pH 7.4 using a Teflon pestle/homogenizer. Homogenates were centrifuged at 1,000 g, 5 min at 4° C., and then the supernatant were re-centrifuged at 16,000 g, 20 min at 4° C. The pellets were collected as synaptosomes.
Assay buffers, transport assays, Ca^2+ imaging. NE transport assays on synaptosomes (50-100 μg/assay reaction) or cells were described previously (Sung et al., 2003). Uptake assay was carried out in KRH/Ca^2+ (mM: 120 NaCl, 4.7 KCl, 1.2 KH2PO4, 10 HEPES, 1.2 MgSO4, 2.2 CaCl2, pH 7.4,) with 0.1 mM pargylnine, ascorbic acid, tropolone, and 1.8 mg/ml glucose, otherwise mentioned. KRH/EGTA is KRH with 0.2 mM EGTA and without CaCl2. When KRH/EGTA was used, KRH/Ca^2+ for the parallel experiment contained 0.2 mM EGTA as well. Uptake assays were initiated by addition of [^3H]-NE (1-[7,8-^3H] noradrenaline, Amersham Pharmacia) at 50 nM final concentration. For kinetics assays, 50, 100, 200 nM of [^3H]-NE, 400, 600, 800, 1,000, 1,200, 1,500 nM of 20% [^3H]-NE and 80% of unlabeled NE (Sigma) were used. Nonspecific uptake was defined using 1-10 μM desipramine. All assays were carried out at 37° C. for 10 min in triplicates. Ca^2+ imaging was performed as described previously (Apparsundaram et al., 2001). CHO cells were pre-loaded with […] fura-2/acetoxymethyl ester (fura-2/AM, Molecular Probe) and superfused with KRH/EGTA and 1 μM thapsigargin for 10 min. The medium was replaced with KRH/Ca^2+ or KRH/EGTA before measurement of intracellular Ca^2+. All experiments derive from at least 3 independent data and mean values were evaluated using a two-tailed Student's t-test or a one-way ANOVA, followed by Tukey's test, with p<0.05 considered significant (*). Data were analyzed using GraphPad Prism 4.
Protocols for restoration and depletion of Ca^2+ For uptake assay, synaptosomes were pre-incubated with drugs in KRH/Ca^2+. For increase of Ca^2+, synaptosomes were re-suspended in KRH/EGTA, transferred to fresh KRH/EGTA (EGTA to EGTA) or KRH/Ca^2+ (EGTA to Ca^2+), and incubated at 37° C. for 5 min prior to the addition of radiolabeled NE. NE uptake activity of synaptosomes in KRH/Ca^2+ was compared to the activity of synaptosomes in KRH/EGTA. For reduction of Ca^2+, synaptosomes were first resuspended in KRH/Ca^2+, divided into 2 aliquots, replaced with fresh KRH/Ca^2+ (Ca^2+ to Ca^2+) or KRH/EGTA (Ca^2+ to EGTA), and incubated at 37° C. for 5 min prior to the addition of radiolabeled NE. NE uptake activity of synaptosomes in KRH/EGTA was compared to the activity of synaptosomes in KRH/Ca^2+. Control cells were treated the same way except use of complete media with vehicle. Restoration of Ca^2+ for surface biotinylation was carried out by incubating cells in KRH/EGTA with 0.1-1 μM thapsigargin for 10 min at 37° C. to deplete Ca^2+. Cells were washed once with KRH/EGTA, replaced with KRH/EGTA or KRH/Ca^2+, and incubated for 1 min at RT to 5 min at 37° C. prior to biotinylation. […]

NET [2] = assay: Whole cell patch clamp recording of NET currents in SCG neurons; format: cell-based, rat; conditions: 200 μM CdCl2, 5 μM KN93 15 min, 2 μM STO609 20 min
Procedure: Whole Cell Patch Clamp Recording of NET currents. Patch clamp experiments were performed using an amplifier Axopatch 200B with a low-pass filter set at 1 kHz. Quartz patch pipettes with 5-7 MΩ resistance were pulled by a programmable puller (model P-2000, Sutter Instruments Novato, Calif.) and filled with the internal solution containing (in mM): 120 KCl, 2 MgCl2, 10 HEPES, 2 MgATP, 30 dextrose and adjusted to pH 7.35. SCG neurons were washed twice with a control solution containing mMs 130 NaCl, 5 CaCl2, 0.5 MgCl2, 1.3 KCl, 10 HEPES, 34 dextrose adjusted to pH 7.35 before experiments. NET-mediated current was defined as the current recorded in control condition minus the current recorded in presence of 5 μM desipramine. Neurons were clamp at −50 mV and the NET-mediated current was recorded by stepping the membrane voltage to −120 mV for 500 ms before and after a 2 sec depolarizing step at −10 mV. NET-mediated current was studied in the control condition, in presence of 200 μM CdCl2, after 15 min preincubation with 5 μM KN93 and after 20 min preincubation with 2 μM STO609.

human NET [3] = assay: Surface biotinylation of HA-NET in transiently transfected CHO cells; format: cell-based; conditions: for Effect on Ca^2+-depletion elicited reduction of NET surface density / Effect on Ca^2+-stimulated elevation of NET surface density: 5 μM KN93 30 min or 5 μM STO-609 1 hour; for Effect on Ca^2+-stimulated elevation of NET surface density: KRH/EGTA to KRH/Ca^2+; for Change of transporter surface density in response to Ca^2+ manipulations (addition or depletion): HA-tagged NET mutants in CHO cells
NET [4] = assay: NE transport assay in CAD-NET cells; format: cell-based, human; conditions: KRH/Ca^2+
Procedure: Uptake assay was carried out in KRH/Ca^2+ (mM: 120 NaCl, 4.7 KCl, 1.2 KH2PO4, 10 HEPES, 1.2 MgSO4, 2.2 CaCl2, pH 7.4,) with 0.1 mM pargylnine, ascorbic acid, tropolone, and 1.8 mg/ml glucose, otherwise mentioned. KRH/EGTA is KRH with 0.2 mM EGTA and without CaCl2. When KRH/EGTA was used, KRH/Ca^2+ for the parallel experiment contained 0.2 mM EGTA as well. […] Nonspecific uptake was defined using 1-10 μM desipramine. All assays were carried out at 37° C. for 10 min in triplicates. […] All experiments derive from at least 3 independent data and mean values were evaluated using a two-tailed Student's t-test or a one-way ANOVA, followed by Tukey's test, with p<0.05 considered significant (*).

NET [5] = assay: Surface NET immunolabeling in cultured SCG neurons on high K+ depolarization; format: cell-based, rat; conditions: SCG cultures, high potassium buffer, preincubated with drug
Procedure: Primary neuronal culture, immunohistochemistry, electrophysiology. […] Surface-labeling of NET has been preformed by staining non-fixed SCG culture with anti-NET sera 43408 as described in (Savchenko et al., 2003). For detection of plasma membrane changes+/−depolarization, SCG neurons were preincubated with normal medium (2.5 mM K+) or in 40 mM or 90 mM K^+ for 15 min followed by incubation with NET 43408 antibody for 1 hr at RT in the absence of detergent. Cells were washed and fixed with 3% p-formaldehyde for 10 min prior to visualization of NET labeling using Cy3-conjugated anti-rabbit antibodies. Specimens from multiple fields were examined with a Zeiss LSM 510 Meta imaging system equipped with internal He/Ne and external Ar/Kr lasers. Images were collected were averaged across multiple fields of replicate experiments (n=3), pseudocolored for presentation, and pixel intensity calculated over processes immunopositive by double-staining for tubulin immunoreactivity in Metamorph.

human NET [6] = assay: NE transport assay in transiently transfected CHO cells; format: cell-based
Target sequence in this assay (P23975 48-617 limits assumed): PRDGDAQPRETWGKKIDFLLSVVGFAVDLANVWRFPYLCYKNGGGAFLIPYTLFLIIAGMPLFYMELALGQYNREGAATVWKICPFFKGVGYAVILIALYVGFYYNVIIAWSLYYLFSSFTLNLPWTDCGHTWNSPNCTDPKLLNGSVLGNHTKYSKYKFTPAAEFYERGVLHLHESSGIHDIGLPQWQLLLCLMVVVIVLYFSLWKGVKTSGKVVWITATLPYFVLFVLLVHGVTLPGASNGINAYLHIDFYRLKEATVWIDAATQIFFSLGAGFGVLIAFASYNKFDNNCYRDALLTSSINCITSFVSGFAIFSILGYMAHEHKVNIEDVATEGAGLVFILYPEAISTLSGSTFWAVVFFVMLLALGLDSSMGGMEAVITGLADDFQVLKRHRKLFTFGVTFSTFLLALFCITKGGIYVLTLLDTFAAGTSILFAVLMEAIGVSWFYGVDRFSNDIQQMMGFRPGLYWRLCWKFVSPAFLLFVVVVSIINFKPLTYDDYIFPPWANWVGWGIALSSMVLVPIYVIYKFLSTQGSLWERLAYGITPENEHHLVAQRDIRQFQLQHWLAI

human NET [7] = assay: [32P] metabolic labeling and immunoprecipitation of NET in stable CHO cells; format: cell-based; conditions: KRH/EGTA to KRH/Ca^2+ for 5 min
Procedure: Cell culture, transfection of cDNA or siRNA, generation of stable cell lines, preparation of cortical synaptosomes. CHO cells were maintained in DMEM/10% fetal bovine serum (FBS), 2 mM L-glutamine (L-Glu), 100 IU/ml penicillin, 100 μg/ml streptomycin (pen/strep). CHO-NET or CHO-NET T30A cells were generated by stably transfecting HA-NET or HA-NET T30A in pcDNA5/FRT (Invitrogen) into CHO-Flip-In cells (Invitrogen). The stable clones were selected using hygromycin B ([…], Invitrogen) and maintained in Ham's F12/10% FBS/L-Glu/pen/strep supplemented with Zeocin […] (Invitrogen). CAD-NET cells were generated by stably transfecting HA-NET in pcDNA3 into CAD cells and maintained in DMEM/F12/8% FBS/L-Glu/pen/strep/200 μg/ml of G418 (Mediatech). TransIT-LT1 transfection reagent (Mirus) was used for all transfections. All cells were plated on poly-D-lysine coated plates and incubated for 48 hrs for cDNA transfection and for 48 to 72 hrs for siRNA transfection prior to assays. […]
Biochemical analysis and phosphorylation. […] Phosphorylated bands were captured via Phosphoimager (Typhoon 9400, Molecular Dynamics/GE Healthcare Life Sciences) and analyzed using ImageQuant 5.2 (Molecular Dynamics). […] Exposed films of immunoblots were scanned using an Agfa Duoscan T1200 and the captured images processed in Adobe® Photoshop® and quantitated using NIH image.

## NC[C@H](O)c1ccc(O)c(O)c1 [NE, norepinephrine]
NET [1]; KRH/EGTA
  NE transport Vmax: 0.129+/−0.0129 pmol/mg protein/min

## O=C(O)c1ccc2c3c1cccc3c(=O)n1c3ccccc3nc21 [STO-609]
NET [2]
  Effect on increase in NET current triggered by prior depolarization: prevented the stimulation-elicited increase in NET currents
NET [2]; listed as STO609
  Effect on increase in NET current triggered by prior depolarization: converted the stimulation-induced increase into a stimulation-elicited decrease in NET currents
Human NET [3]; CHO cells
  Effect on Ca^2+-depletion elicited reduction of NET surface density: prevented a loss of NET from the surface
  Effect on Ca^2+-stimulated elevation of NET surface density: completely blocked the increase in surface NET protein
NET [4]
  Basal NE transport: did not influence basal NE transport

## CdCl2
NET [2]
  Effect on increase in NET current triggered by prior depolarization: prevented the increase in NET current

## KN93
NET [2]
  Effect on increase in NET current triggered by prior depolarization: prevented the stimulation-elicited increase in NET currents
NET [5]
  Depolarization triggered increase of surface NET density: failed to increase surface NET density
Human NET [3]; CHO cells
  Effect on Ca^2+-depletion elicited reduction of NET surface density: blocked
  Effect on Ca^2+-stimulated elevation of NET surface density: blocked
NET [4]
  Basal NE transport: able to suppress NE transport
NET [1]
  NE transport in KRH/Ca^2+ after drug treatment: inhibited NE transport
  Effect on reduction in NET activity on switch from KRH/Ca^2+ to KRH/EGTA: blunted
  Effect on elevation in NET activity triggered by addition of Ca^2+: significantly blunted the elevation in NET activity
NET [1]; drug pre-treated synaptosomes, KRH/EGTA to KRH/Ca^2+ (2.2 mM final), 5 μM KN93
  NE transport after addition of Ca^2+, % of control: 140.5+/−11.2%
NET [1]; drug pre-treated synaptosomes, 5 μM KN93
  NE uptake when switched to KRH/EGTA, % of NE uptake in KRH/Ca^2+: 67.5+/−7.2%

## NET T30A: human NET with T30 mutated to alanine, HA-tagged
Human NET [6]; 15 min Ca^2+ restoration including 10 min transport assay
  Recovery of NE transport after Ca^2+ depletion: failed to recover NE transport activity
Human NET [6]; transiently transfected CHO cells
  NE transport activity in KRH/Ca^2+: equivalent to wild-type NET
Human NET [3]; CHO cells, n=3
  Basal surface expression versus wildtype hNET: 117+/−18.5%
Human NET [3]
  Change of transporter surface density in response to Ca^2+ manipulations (addition or depletion): complete lack of Ca^2+ sensitivity
Human NET [7]
  Phosphorylation following Ca^2+ addition: no phosphorylation

## NET T30E: human NET mutant designed to mimic constitutive phosphorylation at T30
Human NET [3]
  Change of transporter surface density in response to Ca^2+ manipulations (addition or depletion): failed to change

## bisindolylmaleimide I [BIM]
NET [1]
  NE transport in KRH/Ca^2+ after drug treatment: inhibited NE transport
  Effect on reduction in NET activity on switch from KRH/Ca^2+ to KRH/EGTA: failed to attenuate the loss of NET activity
  Effect on elevation in NET activity triggered by addition of Ca^2+: no ability to attenuate Ca^2+-stimulated NET activity

Source: US20090156530A1, “Norepinepherine Transporter Mutants and Uses Thereof” (priority 2007, published 2009)
